Tested on: recombinant NL4-3 virus (Renilla luciferase in nef, Gag P373S)
Assay: HIV cell culture assay (luciferase reporter virus in MT-2 cells)
Format: cell-based
Settings: NL43
Outline: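 MT-2 cells in RPMI/10% FBS were infected with recombinant NL4-3 (NLRluc), produced by 293T transfection and titered in MT-2 by luciferase. Serial inhibitor dilutions were present throughout a 4–5 day infection. Antiviral activity was quantified as Renilla luciferase signal via a modified Dual Luciferase read.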

| SMILES | EC50 [nM] |
| --- | --- |
| C=C(C)[C@@H]1CC[C@]2(CO)CC[C@]3(C)[C@H](CC[C@@H]4[C@@]5(C)CC=C(c6ccc(NS(C)(=O)=O)cc6)C(C)(C)[C@@H]5CC[C@]43C)[C@@H]12 [Example 5i, N-(4-((1R,3aS,5aR,5bR,7aR,11aS,11bR,13aR,13bR)-3a-(hydroxymethyl)-5a,5b,8,8,11a-pentamethyl-1-(prop-1-en-2-yl)-2,3,3a,4,5,5a,5b,6,7,7a,8,11,11a,11b,12,13,13a,13b-octadecahydro-1H-cyclopenta[a]chrysen-9-yl)phenyl)methanesulfonamide] | > 1000 |
| C=C(C)[C@@H]1CC[C@]2(C(=O)O)CC[C@]3(C)[C@H](CC[C@@H]4[C@@]5(C)CC=C(c6ccc(C(=O)O)s6)C(C)(C)[C@@H]5CC[C@]43C)[C@@H]12 [Example 4n, 5-((1R,3aS,5aR,5bR,7aR,11aS,11bR,13aR,13bR)-3a-carboxy-5a,5b,8,8,11a-pentamethyl-1-(prop-1-en-2-yl)-2,3,3a,4,5,5a,5b,6,7,7a,8,11,11a,11b,12,13,13a,13b-octadecahydro-1H-cyclopenta[a]chrysen-9-yl)thiophene-2-carboxylic acid] | < 1000 |
| C=C(C)[C@@H]1CC[C@]2(CO)CC[C@]3(C)[C@H](CC[C@@H]4[C@@]5(C)CC=C(c6ccc(C(=O)O)cc6F)C(C)(C)[C@@H]5CC[C@]43C)[C@@H]12 [Example 5k, 3-fluoro-4-((1R,3aS,5aR,5bR,7aR,11aS,11bR,13aR,13bR)-3a-(hydroxymethyl)-5a,5b,8,8,11a-pentamethyl-1-(prop-1-en-2-yl)-2,3,3a,4,5,5a,5b,6,7,7a,8,11,11a,11b,12,13,13a,13b-octadecahydro-1H-cyclopenta[a]chrysen-9-yl)benzoic acid] | < 1000 |
| CC(C)[C@@H]1CC[C@]2(C(=O)O)CC[C@]3(C)[C@H](CC[C@@H]4[C@@]5(C)CC[C@H](c6ccc(C(=O)O)cc6)C(C)(C)[C@@H]5CC[C@]43C)[C@@H]12 [Example 3b, (1S,3aS,5aR,5bR,7aS,9S,11aS,11bR,13aR,13bR)-9-(4-carboxyphenyl)-1-isopropyl-5a,5b,8,8,11a-pentamethylicosahydro-1H-cyclopenta[a]chrysene-3a-carboxylic acid] | < 1000 |
| C=C(C)[C@@H]1CC[C@]2(C(=O)O)CC[C@]3(C)[C@H](CC[C@@H]4[C@@]5(C)CC=C(c6ccc(-c7cnc8ccccc8c7C(=O)O)cc6)C(C)(C)[C@@H]5CC[C@]43C)[C@@H]12 [Example 4m, 3-(4-((1R,3aS,5aR,5bR,7aR,11aS,11bR,13aR,13bR)-3a-carboxy-5a,5b,8,8,11a-pentamethyl-1-(prop-1-en-2-yl)-2,3,3a,4,5,5a,5b,6,7,7a,8,11,11a,11b,12,13,13a,13b-octadecahydro-1H-cyclopenta[a]chrysen-9-yl)phenyl)quinoline-4-carboxylic acid] | > 1000 |
| C=C(C)[C@@H]1CC[C@]2(C(=O)O)CC[C@]3(C)[C@H](CC[C@@H]4[C@@]5(C)CC=C(c6cccc(C(=O)O)c6)C(C)(C)[C@@H]5CC[C@]43C)[C@@H]12 [Example 2a, (1R,3aS,5aR,5bR,7aR,11aS,13aR,13bR)-9-(3-carboxyphenyl)-5a,5b,8,8,11a-pentamethyl-1-(prop-1-en-2-yl)-2,3,3a,4,5,5a,5b,6,7,7a,8,11,11a,11b,12,13,13a,13b-octadecahydro-1H-cyclopenta[a]chrysene-3a-carboxylic acid] | > 1000 |
| CC1(C)CC[C@]2(C(=O)O)CC[C@]3(C)C(=CC[C@@H]4[C@@]5(C)CC=C(c6ccc(C(=O)O)cc6)C(C)(C)[C@@H]5CC[C@]43C)[C@@H]2C1 [Example 13, (4aS,6aS,6bR,8aR,12aS,12bR,14bS)-10-(4-carboxyphenyl)-2,2,6a,6b,9,9,12a-heptamethyl-1,2,3,4,4a,5,6,6a,6b,7,8,8a,9,12,12a,12b,13,14b-octadecahydropicene-4-a-carboxylic acid] | < 1000 |

Reference: patent publication US8754068B2, “Modified C-3 betulinic acid derivatives as HIV maturation inhibitors” (priority 2010, dated 2014)
